Results: patent US20240025862A1, “SUBSTITUTED N-PHENYLURACILS AND SALTS THEREOF, AND USE THEREOF AS HERBICIDAL ACTIVE SUBSTANCES” (Bayer Aktiengesellschaft, priority 2020, published 2024)

Assays:
Format in all cases: in vivo
[1] = test system: Avena fatua (AVEFA); test: Post-emergence herbicidal action, greenhouse pot test; details: Avena fatua, 504 h, 20 g/ha, rated visually after about 3 weeks vs untreated controls, 100% = plants have died, read-out: Post-emergence action at 20 g/ha against AVEFA in %
Outline: (§1)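 Greenhouse-grown weeds in sandy loam were sprayed post-emergence at the one-leaf stage, 2–3 weeks after sowing. Compounds were formulated as WP or EC in water with 0.5% additive at 600 l/ha, at rates of 20 g/ha or less. Visual rating after about 3 weeks used a scale from 0% (like untreated control) to 100% (plants dead).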

[2] = test system: Abutilon theophrasti (ABUTH); test: as above; details: Abutilon theophrasti, 504 h, rated visually after about 3 weeks vs untreated controls, 100% = plants have died
Outline: as §1

[3] = test system: Pharbitis purpurea (PHBPU); test: as above; details: Ipomoea purpurea, 504 h, read-out: Post-emergence action against PHBPU in %
Outline: as §1

[4] = test system: Viola tricolor (VIOTR); test: as above; details: Viola tricolor, 504 h, read-out: Post-emergence action against VIOTR
Outline: as §1

[5] = test system: Veronica persica (VERPE); test: as above; details: Veronica persica, 504 h, read-out: Post-emergence action against VERPE
Outline: as §1

[6] = test system: Amaranthus retroflexus (AMARE); test: as above; details: Amaranthus retroflexus, 504 h, rated visually after about 3 weeks vs untreated controls, 100% = plants have died
Outline: as §1

[7] = test system: Lolium rigidum (LOLRI); test: as above
Outline: as §1

[8] = test system: Triticum aestivum (TRZAS); test: Post-emergence crop plant compatibility, greenhouse pot test; details: vs untreated controls
Outline: (§2)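 Seeds are sown in sandy loam and grown under controlled greenhouse conditions. At the one-leaf stage (2–3 weeks), foliage is sprayed with the formulated compound in water containing 0.5% additive at 600 l/ha. About 3 weeks later, injury is rated visually in % against untreated plants.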

[9] = test system: Brassica napus (BRSNW); test: as above; details: for Post-emergence action against BRSNW (crop plant compatibility): vs untreated controls
Outline: as §2

[10] = test system: Alopecurus myosuroides (ALOMY); test: Post-emergence herbicidal action, greenhouse pot test (also comparative test C); details: rated visually after about 3 weeks vs untreated controls, 100% = plants have died
Outline: (§3)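 Visual rating against untreated controls, about 3 weeks after spraying, from 0% (like control) to 100% (plants dead). Weeds were treated at the one-leaf stage, 2–3 weeks after sowing in sandy loam, with aqueous WP/EC spray containing 0.5% additive at 600 l/ha. Doses were ≤20 g/ha, or ≤5 g/ha for comparative test C.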

[11] = test system: Echinochloa crus-galli (ECHCG); test: as above
Outline: as §3

[12] = test system: Matricaria inodora (MATIN); test: as above; details: Tripleurospermum inodorum, 504 h, read-out: Post-emergence action against MATIN in %
Outline: as §3

[13] = test system: Setaria viridis (SETVI); test: as above; details: Setaria viridis, 504 h
Outline: as §3

[14] = test system: Oryza sativa (ORYSA); test: Post-emergence crop plant compatibility, greenhouse pot test (also comparative test C); details: 1.25 g/ha, vs untreated controls
Outline: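 Rice and other crops sprayed post-emergence at one-leaf stage (2–3 weeks after sowing) with WP or EC formulations plus 0.5% additive at 600 l/ha water. Visual rating about 3 weeks later versus untreated controls (100% = dead, 0% = like control); suffixes a–c denote different doses.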

Work on Cn1c(C(F)(F)F)cc(=O)n(-c2cc(Oc3ccccc3OCC(=O)OCc3ccccn3)c(Cl)cc2F)c1=O [I.7-276, Pyridin-2-ylmethyl (2-{2-chloro-4-fluoro-5-[3-methyl-2,6-dioxo-4-(trifluoromethyl)-3,6-dihydropyrimidin-1(2H)-yl]phenoxy}phenoxy)acetate] yielded a pest or weed control at 20 g/ha [1] of 90%, a pest or weed control at 1.25 g/ha ([2]; 1.25 g/ha, read-out: Post-emergence action at 1.25 g/ha against ABUTH in %) of 100% and a pest or weed control at 5 g/ha ([2]; 5 g/ha, read-out: Post-emergence action at 5 g/ha against ABUTH in %) of 100%. It also gave a pest or weed control at 20 g/ha ([2]; 20 g/ha, read-out: Post-emergence action at 20 g/ha against ABUTH in %) of 100%, a pest or weed control at 1.25 g/ha ([3]; dosage 1.25 g/ha) of 100% and a pest or weed control at 5 g/ha ([3]; dosage 5 g/ha) of 100%. It also gave a pest or weed control at 20 g/ha ([3]; dosage 20 g/ha) of 100%, a pest or weed control at 1.25 g/ha ([4]; 1.25 g/ha) of 100% and a pest or weed control at 5 g/ha ([4]; 5 g/ha) of 100%. It also gave a pest or weed control at 20 g/ha ([4]; 20 g/ha) of 100%, a pest or weed control at 1.25 g/ha ([5]; 1.25 g/ha) of 100% and a pest or weed control at 5 g/ha ([5]; 5 g/ha) of 100%. For the same molecule, the pest or weed control at 20 g/ha ([5]; 20 g/ha) was 100%, the pest or weed control at 1.25 g/ha ([6]; 1.25 g/ha, read-out: Post-emergence action at 1.25 g/ha against AMARE in %) was 100% and the pest or weed control at 5 g/ha ([6]; 5 g/ha, read-out: Post-emergence action at 5 g/ha against AMARE in %) was 100%. For the same molecule, the pest or weed control at 20 g/ha ([6]; 20 g/ha, read-out: Post-emergence action at 20 g/ha against AMARE in %) was 100%, the “Post-emergence action at 5 g/ha against LOLRI in %” value ([7]; 5 g/ha, rated visually after about 3 weeks vs untreated controls, 100% = plants have died) was 80% and the pest or weed control at 20 g/ha ([7]; Lolium rigidum, 504 h, dosage 20 g/ha, read-out: Post-emergence action against LOLRI in %) was 100%. The “Post-emergence action against TRZAS (crop plant compatibility)” value ([8]; 1.25 g/ha) was 20%, the “Post-emergence action against TRZAS (crop plant compatibility)” value ([8]; 5 g/ha) was 20% and the “Post-emergence action against BRSNW (crop plant compatibility)” value ([9]; 1.25 g/ha) was 20%. For the same molecule, the “Post-emergence action at 5 g/ha against BRSNW in %” value ([9]; 5 g/ha, crop plant compatibility, observed effects on crop plant in comparison to untreated controls) was 20%, the “Post-emergence action against BRSNW (crop plant compatibility)” value ([9]; 20 g/ha) was 20% and the “Post-emergence action at 1.25 g/ha against ALOMY in %” value ([10]; 1.25 g/ha) was 90%. For the same molecule, the pest or weed control at 5 g/ha ([10]; Alopecurus myosuroides, 504 h, 5 g/ha, read-out: Post-emergence action at 5 g/ha against ALOMY in %) was 100%, the pest or weed control at 20 g/ha ([10]; Alopecurus myosuroides, 504 h, 20 g/ha, read-out: Post-emergence action at 20 g/ha against ALOMY in %) was 100% and the “Post-emergence action at 1.25 g/ha against ECHCG in %” value ([11]; 1.25 g/ha, rated visually after about 3 weeks vs untreated controls, 100% = plants have died) was 90%. The pest or weed control at 5 g/ha ([11]; Echinochloa crus-galli, 504 h, dosage 5 g/ha, read-out: Post-emergence action against ECHCG in %) was 100%, the pest or weed control at 20 g/ha ([11]; Echinochloa crus-galli, 504 h, dosage 20 g/ha, read-out: Post-emergence action against ECHCG in %) was 100% and the pest or weed control at 1.25 g/ha ([12]; dosage 1.25 g/ha) was 100%. For the same molecule, the pest or weed control at 5 g/ha ([12]; dosage 5 g/ha) was 100%, the pest or weed control at 20 g/ha ([12]; dosage 20 g/ha) was 100% and the pest or weed control at 20 g/ha ([13]; 20 g/ha, read-out: Post-emergence action against SETVI) was 100%. The pest or weed control at 1.25 g/ha ([13]; dosage 1.25 g/ha, read-out: Post-emergence action against SETVI in %) was 100%, the pest or weed control at 5 g/ha ([13]; dosage 5 g/ha, read-out: Post-emergence action against SETVI in %) was 100% and the “Post-emergence action against ORYSA (crop plant compatibility)” value [14] was 0%.
